The source of these data is PMC9228955, “Synthesis, Physicochemical, Labeling and In Vivo Characterization of ^44Sc-Labeled DO3AM-NI as a Hypoxia-Sensitive PET Probe” (Pharmaceuticals, 2022).

The conditions of series [1]: 25 °C, cited from earlier work.
The conditions of series [2]: 25 °C, cited from earlier work. The source holds these as a separate data set.
Series [3] in a line: Stability constant of Sc(III) complex by 1H and 45Sc NMR batch samples and pH-potentiometric titration; pSc calculation. It counts as physicochemical. The conditions noted are these: for pSc (-log[Sc(III)]free): [Sc(III)]tot = 1 × 10^−8 M, [L]tot = 1 × 10^−7 M, pH = 7.4. The procedure: The stability constant of the Sc(DO3AM-NI) complex was assessed by ^1H and ^45Sc-NMR studies using samples prepared in the 0.055–0.195 M acid concentration range. […] Absence of protonation and the presence of a ternary hydroxydo species formation with KScL•OH = 10.88(5) were detected at our experimental conditions. The NMR samples contained 3.32 mM ligand, ScCl3 and a constant ionic strength of 0.15 M NaCl. The samples were thermostated at 37 °C, and their ^1H- and ^45Sc-NMR spectra were recorded after 60 days. In order to ensure that the equilibrium in the samples was attained, the ^1H and ^45Sc-NMR measurements were repeated again 90 days later. The spectra were practically identical with the spectra recorded at 60 days (Figures S4 and S5). As expected, the thermodynamic stability constant of the Sc(DO3AM-NI) complex (log KScL = 22.36(4)) was considerably lower than those of Sc(III) complexes formed with DOTA, DTPA or AAZTA ligands (Table 1). A moderate decrease in terms of thermodynamic stability constants was already observed for the complexes of DO3A-monamides formed with Gd(III) ions in comparison to the stability of parent Gd(DOTA)^− chelate. Despite the lower stability constant of the complex, the Sc(III) ion was complexed completely around pH = 2.0 (in a millimolar concentration range, see Figure 2). However, it might be misleading to directly compare the stability constants of the complexes formed by ligands of different basicity (as it depends on the basicity of the ligand); therefore, we calculated and compared the pSc values (which could be treated as conditional constants) for the complexes shown in Table 1 by taking the protonation constants of ligands, the stability constants of the complex species present in solution and the hydrolysis of the Sc(III) ion (according to Ref. [23]: log βSc(OH) = −4.3, log βSc(OH)2 = −9.7, log βSc(OH)3 = −16.1, log βSc(OH)4 = −26.0 and log βSc2(OH)4 = −6.0) into account.
(§1) The equilibrium measurements were performed at constant ionic strength maintained by 0.15 M NaCl at 37 °C. For determining the protonation constants of DO3AM-NI, two parallel pH-potentiometric titrations were performed with 0.1611 M NaOH in a 5.00 cm^3 sample containing the ligand at the concentration of 2.76 mM. The stability constant of Sc(DO3AM-NI) was assessed by ^1H and ^45Sc NMR in 0.7 mL “batch” samples containing the metal and the ligand at 3.32 mM and different concentrations of strong acid (0.05–0.20 M) aged 90 days (see below). The formation of protonated and ternary hydroxydo complex species was probed by pH-potentiometric titration by titrating the preformed complex (at a concentration of 1.95 mM) with standardized NaOH solution. For the calculation of the logKMH-1L value, the VNaOH–pH data used were obtained in the pH range 1.68–11.85. The pH-potentiometric titrations were carried out with a Metrohm 785 DMP Titrino titration workstation with the use of a Metrohm-6.0233.100-combined electrode calibrated via a two-point calibration routine using KH-phthalate (pH = 4.005) and borax (pH = 9.177) buffers. The titrated samples were stirred with a magnetic stirrer, and N2 gas was bubbled through the solutions to avoid the effect of CO2. For the calculation of [H^+] from the measured pH values, the method proposed by Irving et al. was applied. For this, a 0.01M HCl solution was titrated with the standardized NaOH solution in the presence of 0.15 M NaCl ionic strength at 37 °C. The differences between the measured (pHread) and calculated pH (-log[H^+]) values were used to obtain the equilibrium H^+ concentration from the pHmeas values during the titrations. […] For the calculation of the equilibrium constants, the PSEQUAD program was used.
^1H- and ^45Sc-NMR measurements (400 MHz and 97 MHz, respectively) were performed with a Bruker DRX 400 (9.4 T) spectrometer equipped with a Bruker VT-1000 thermocontroller and a BB inverse z-gradient probe (5 mm). […]

Series [4] in a line: pH-potentiometric determination of ligand protonation constants. It counts as physicochemical. Conditions: 0.15 M NaCl, 37 °C. How it is done: Equilibrium measurements were commenced by determining the protonation constants of the ligand, measured at 37 °C (I = 0.15 M NaCl) owing to the relevance of the chelate under in vivo conditions. The protonation constants obtained by fitting the pH-potentiometric data for the ligand DO3AM-NI are shown in Table 1 along with the literature data published for DOTA and certain DO3A-monoamides (DO3A-mono-N-buthylamide as well as that of a hypoxia-sensitive MRI probe reported by some of us a couple of years ago). Five protonation steps were observed by performing the titration in the pH range of 1.72–11.85 for the DO3AM-NI monoamide type ligand, two of which (characterized by high constants) describe the protonation of nitrogen atoms in the macrocycle (positioned trans- to each other), while the remaining log Ki^H values (much lower) likely reflect the protonation of the carboxylates. The replacement of an acetate group of DOTA by an amide moiety results in a decrease in the protonation sites of the ligand, and as a consequence the overall basicity of the ligand (expressed as the sum of the protonation constants, log β015) was as expected, predicted from the data published in literature. What is more, the formation of a weak Na^+ complex (originating from the ionic strength) competing with the first protonation process may be responsible of the lower value of the first protonation constant.
as §1

[5] abbreviates: constants at 0.1 M Me4NCl, 25 °C from Ref. 19.

Structures are written as SMILES. Where two headings read alike, the source gives them in different places.

Take `O=C(O)CN(CCN(CC(=O)O)CC(=O)O)CCN(CC(=O)O)CC(=O)O` [DTPA]: in series [1] (0.1 M Me4NCl), the “log KScL•H (protonation constant of Sc(III) complex)” value (“log KScL•H” for short) is given as 1.36, the “log KScL•OH (ternary hydroxydo species)” value is given as 12.44 and the “log KSc•L (stability constant of Sc(III) complex)” value (shortened to “log KSc•L”) is 27.43. Besides, in series [2] (0.1 M Me4NCl), the “log K1^H” value is 10.65, the “log K2^H” value is 8.66, the “log K3^H” value is recorded as 4.36 and the “log K4^H” value is listed as 2.82. In series [2] (0.1 M Me4NCl), the “log K5^H” value is listed as 2.03, the “log K6^H” value is on record as 1.31, the “log K7^H” value was 1.30 and the “log β015 (sum of the protonation constants)” value (from here on “log β015”) is on record as 28.52. For the same molecule, the “pSc (-log[Sc(III)]free)” value in series [3] (setting [5]) is on record as 23.88.
As to `O=C(O)CN1CCN(CC(=O)O)CCN(CC(=O)NCCn2ccnc2[N+](=O)[O-])CCN(CC(=O)O)CC1` [DO3AM-NI], in series [4], the “log K1^H” value is 8.79(1), the “log K2^H” value was 8.59(1), the “log K3^H” value is on record as 4.23(1) and the “log K4^H” value is 2.49(1). Also, in series [4], the “log K5^H” value is given as 1.00(4) and the “log β015” value is recorded as 25.10. In series [3] (0.15 M NaCl, 37 °C), the “log KScL•OH (ternary hydroxydo species)” value is 10.88(5) and the “log KSc•L” value is given as 22.36(4). In series [3] (constants at 0.15 M NaCl, 37 °C), the “pSc (-log[Sc(III)]free)” value is listed as 20.74.
Consider `O=C(O)CN1CCN(CC(=O)O)CCN(CC(=O)O)CCN(CC(=O)O)CC1` [DOTA, 1,4,7,10-tetraazacyclododecane-1,4,7,10-tetraacetic acid], for which, in series [1] (0.1 M Me4NCl), the “log KScL•H” value is listed as 1.00 and the “log KSc•L” value is listed as 30.79. Also, in series [2] (0.1 M Me4NCl), the “log K1^H” value was 12.90, the “log K2^H” value was 9.72, the “log K3^H” value is given as 4.62 and the “log K4^H” value is 4.15. Also, in series [2] (0.1 M Me4NCl), the “log K5^H” value is given as 2.29, the “log K6^H” value is 1.34 and the “log β015” value is recorded as 33.68. The “pSc (-log[Sc(III)]free)” value in series [3] (setting [5]) is reported as 23.92.
As to `CC1(N(CC(=O)O)CC(=O)O)CN(CC(=O)O)CCN(CC(=O)O)C1` [AAZTA], in series [1] (0.1 M KCl), the “log KScL•H” value is given as 0.86 and the “log KSc•L” value is listed as 27.69. In series [2] (0.1 M KCl), the “log K1^H” value was 11.26, the “log K2^H” value is reported as 6.62, the “log K3^H” value is 3.86 and the “log K4^H” value is recorded as 2.45. In series [2] (0.1 M KCl), the “log K5^H” value is reported as 1.88 and the “log K6^H” value is 1.46. For the same molecule, in series [3] (constants at 0.1 M KCl, 25 °C from Ref. 20), the “pSc (-log[Sc(III)]free)” value is listed as 24.72.
Consider `CCCCNC(=O)CN1CCN(CC(=O)O)CCN(CC(=O)O)CCN(CC(=O)O)CC1` [DO3AM^nBu, DO3A-mono-N-buthylamide], for which, in series [2] (1.0 M KCl), the “log K1^H” value is on record as 9.78, the “log K2^H” value is recorded as 9.05, the “log K3^H” value is 4.53 and the “log K4^H” value was 3.17. In series [2] (1.0 M KCl), the “log K5^H” value was 2.19 and the “log β015” value is 28.72.
